Test results taken from patent US20070037752A1, “Novel alanyl-amino peptidase inhibitors for functionally influencing different cells and treating immunological, inflammatory, neuronal, and other diseases” (priority 2003, published 2007).
Read-outs that look alike come from different tables or passages of the source. Blank lines part the entries; values can stand above or below the compound they belong to.

Target: alanyl aminopeptidases (APN) (Homo sapiens, UniProt P15144)
Assay: Inhibition of alanyl aminopeptidase enzymatic activity, fluorogenic substrate (Ala)2-rhodamine 110
Assay type: biochemical
Description: The inhibition characteristics measured are referred to as IC-50 values or ID50 values (the latter marked with “*”) for said enzyme. The enzymatic activity was determined by means of the fluorogenic substrate/product (Ala)2-rhodamine 110.

[1] = Table 3, unstarred values, read-out: IC50APN
[2] = Table 4, unstarred values, read-out: IC50APN
[3] = Table 9, unstarred values, read-out: IC50APN
[4] = Table 8, unstarred values, read-out: IC50APN

Chain of alanyl aminopeptidases (APN) (P15144 whole entry, species assumed): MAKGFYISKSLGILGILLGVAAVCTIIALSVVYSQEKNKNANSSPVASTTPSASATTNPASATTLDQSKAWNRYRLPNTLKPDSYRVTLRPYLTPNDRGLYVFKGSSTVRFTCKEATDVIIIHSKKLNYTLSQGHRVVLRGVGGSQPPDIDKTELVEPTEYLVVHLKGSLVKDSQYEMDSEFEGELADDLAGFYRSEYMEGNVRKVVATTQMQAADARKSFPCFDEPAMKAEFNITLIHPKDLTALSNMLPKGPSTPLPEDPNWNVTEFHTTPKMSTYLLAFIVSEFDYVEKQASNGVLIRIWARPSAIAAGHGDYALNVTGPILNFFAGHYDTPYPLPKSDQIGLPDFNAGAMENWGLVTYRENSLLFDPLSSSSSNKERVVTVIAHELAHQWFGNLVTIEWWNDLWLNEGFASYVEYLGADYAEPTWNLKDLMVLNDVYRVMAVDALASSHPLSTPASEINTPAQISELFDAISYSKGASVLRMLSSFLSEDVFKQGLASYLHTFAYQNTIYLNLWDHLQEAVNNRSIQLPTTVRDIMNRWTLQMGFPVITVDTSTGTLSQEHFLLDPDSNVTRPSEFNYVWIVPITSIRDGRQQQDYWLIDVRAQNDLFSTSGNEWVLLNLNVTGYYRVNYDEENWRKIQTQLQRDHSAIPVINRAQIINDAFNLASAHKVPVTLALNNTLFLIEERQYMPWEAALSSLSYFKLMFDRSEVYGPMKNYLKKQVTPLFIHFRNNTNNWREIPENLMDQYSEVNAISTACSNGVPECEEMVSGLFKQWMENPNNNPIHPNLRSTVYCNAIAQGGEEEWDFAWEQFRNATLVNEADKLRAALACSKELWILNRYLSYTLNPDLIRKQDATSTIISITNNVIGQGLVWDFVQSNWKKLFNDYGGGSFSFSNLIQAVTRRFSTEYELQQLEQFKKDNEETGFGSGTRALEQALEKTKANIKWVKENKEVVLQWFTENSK

Compound: CC1=C(C#N)C(=O)N(CCCO)C(=O)/C1=C\c1ccc(-c2cc(C)c(C)cc2[N+](=O)[O-])o1 [A3.037]
IC50 [1]: 9.7 µM

Compound: CC1=C(C#N)C(O)=NC(=O)/C1=C/c1ccc(-c2ccc(Cl)c(C(=O)OC(C)C)c2)o1 [A3.120]
IC50 [1]: 21.4 µM

Compound: Cc1ccc(C(=O)N/C(=C\c2ccco2)C(=O)N2CC3CC(C2)c2cccc(=O)n2C3)cc1C (stereo not shown) [A10.006]
IC50 (Table 10, read-out: IC50APN): 11.8 µM

Compound: COC(=O)c1cccc(-c2ccc(/C=C3\C(=O)N(CCO)C(=O)C(C#N)=C3C)o2)c1 [A13.004]
IC50 (Table 13, read-out: IC50APN): 6.3 µM

Compound: O=C(CNC(=O)c1ccccc1O)N/N=C/c1ccco1 [A4.173]
IC50 (Table 4, starred values = ID50, read-out: ID50 APN (values marked with *)): 98.8 µM

Compound: O=C(O)C1N=NC(c2ccc(F)cc2)=CN1O (stereo not shown) [A12.031]
IC50 (Table 12, read-out: IC50APN): 17.1 µM

Compound: Cc1ccc(/C=N/NC(=O)c2cc(O)cc(O)c2)o1 [A4.083]
IC50 [2]: 26.4 µM

Compound: COc1ccc(C2NCCS2)cc1Br (stereo not shown) [A3.078]
IC50 [1]: 16.4 µM

Compound: O=C(Nc1cccc(/N=C/c2cc(/N=N\c3ccccc3Cl)ccc2O)c1)c1ccco1 [A3.011]
IC50 [1]: 3.6 µM

Compound: O=[N+](O)CC(c1ccccc1)P(=O)(c1ccccc1)c1ccccc1 (stereo not shown) [A6.007]
IC50 (Table 6, read-out: IC50APN): 16.3 µM

Compound: CSCCC1NC(=S)N(Cc2ccccc2)C1=O (stereo not shown) [A8.012]
IC50 [4]: 14.1 µM

Compound: CC(C)N1CCN(Cc2ccccc2[N+](=O)[O-])CC1 [A9.128]
IC50 (Table 9, starred values = ID50, read-out: ID50 APN (values marked with *)): 252 µM

Compound: O=C(N/C(=C\c1cccc([N+](=O)[O-])c1)C(=O)N(CCO)CCO)c1ccco1 [A11.037]
IC50 (Table 11, read-out: IC50APN): 244 µM

Compound: O=C(N/N=C/c1ccco1)c1cc(-c2ccc(F)cc2)n[nH]1 [A4.031]
IC50 [2]: 14.4 µM

Compound: O=C(N/N=C/c1cc([N+](=O)[O-])ccc1O)c1ccc(O)cc1O [A4.054]
IC50 [2]: 20.2 µM

Compound: Cc1ccc(S(=O)(=O)CNC(=S)c2ccc3ccccc3c2)cc1 [A6.005]
IC50 (Table 6, read-out: IC50APN): 11.8 µM

Compound: O=C(N/N=C/c1cc(Br)ccc1OC(=O)c1ccc([N+](=O)[O-])cc1)/C(=C\c1ccc2c(c1)OCO2)NC(=O)c1ccccc1 [A3.271]
IC50 [1]: 54.2 µM

Compound: NCCCNC(=O)C1Cc2ncn(Cc3ccccc3[N+](=O)[O-])c2CN1Cc1ccccn1 (stereo not shown) [A3.326]
IC50 [1]: 138 µM

Compound: Clc1ccc(-n2cc3c(-c4ccco4)nnc(-c4nc5ccccc5s4)c3n2)cc1 [A3.065]
IC50 [1]: 14.3 µM

Compound: Cc1ccc(C(=O)N/C(=C/c2ccco2)C(=O)N(C)C)cc1 [A12.052]
IC50 (Table 12, read-out: IC50APN): 32.5 µM

Compound: CC(=O)C1C(c2ccc(N(C)C)cc2)C2C(=O)N(C3CCCCC3)C(=O)N2C1c1sccc1C (stereo not shown) [A8.036]
IC50 [4]: 68 µM

Compound: CCOc1cc(/C=N/NC(=O)CNC(=O)c2cccc(Cl)c2)ccc1OC(=O)c1cccs1 [A4.020]
IC50 [2]: 12.2 µM

Compound: CCCCCCCC(=O)N/N=C/c1ccco1 [A3.264]
IC50 [1]: 50.3 µM

Compound: O=C(Nc1ccccc1F)c1ccc([N+](=O)[O-])o1 [A11.034]
IC50 (Table 11, read-out: IC50APN): 62.4 µM

Compound: O=c1[nH]c(/C=C/c2ccco2)nc2ccccc12 [A9.035]
IC50 [3]: 14.6 µM

Compound: CCOc1cc(/C=N/NC(=O)CNC(=O)c2cccc(Cl)c2)ccc1OC(=O)c1cccs1 [A3.051]
IC50 [1]: 12.2 µM

Continued, values first:

IC50 (Table 2, read-out: IC50APN): 13.4 µM
Compound: N/C(=N/OS(=O)(=O)c1ccc(C(F)(F)F)cc1)C1CSCCS1 (stereo not shown) [A2.006]

IC50 (Table 5, unstarred values, read-out: IC50APN): 8.2 µM
Compound: O=C(Nc1cccc(/N=C/c2cc(Br)cc(Br)c2O)c1)c1ccco1 [A5.003]

IC50 [1]: 50 µM
Compound: CC(/C=C/c1ccco1)=N\NC(=O)COc1ccc(C(C)(C)C)cc1 [A3.269]

IC50 (Table 11, read-out: IC50APN): 7.6 µM
Compound: CCN(CC)c1ccc(/C=C(\NC(=O)c2ccccc2)C(=O)N/N=C/c2ccc(O)c([N+](=O)[O-])c2)cc1 [A11.002]

IC50 [2]: 26.7 µM
Compound: CCCCCC(=O)N/N=C/c1ccco1 [A4.085]

IC50 [1]: 55.6 µM
Compound: O=C(CNS(=O)(=O)c1ccc2c(c1)OCCO2)N/N=C/c1ccco1 [A3.274]

IC50 [1]: 25.1 µM
Compound: COc1cc(/C=N/NC(=O)/C(=C/c2cccs2)NC(=O)c2ccccc2)cc([N+](=O)[O-])c1O [A3.152]

IC50 [3]: 6.7 µM
Compound: CCc1cccc(CC)c1NC(=S)N/N=C1\C(=O)N(CN2CC(C)CC(C)C2)c2ccccc21 (stereo not shown) [A9.011]

IC50 [3]: 28.9 µM
Compound: CCCCCCCSc1nnc2c(n1)OC(C(=O)c1ccccc1)=Nc1ccccc1-2 [A9.074]

IC50 [1]: 18.7 µM
Compound: NNC(=O)Cn1c2ccccc2n2cc(-c3ccccc3)cc12 [A3.091]

IC50 [3]: 74.6 µM
Compound: COc1ccc(/C=C2\c3ccccc3-c3ccc(C(=O)CCCCN4CCCCC4)cc32)cc1OC [A9.111]

IC50 (Table 14, read-out: IC50APN): 5.9 µM
Compound: COC(=O)C1=C(N)N2C(=O)CSC2=C(C(=O)OC(C)C)C1 [A14.002]

IC50 [1]: 21.8 µM
Compound: COc1ccc(C(=O)N/N=C/c2cc(Br)c(C)o2)cc1 [A3.125]

IC50 [1]: 8.1 µM
Compound: COc1ccc(Cl)cc1C(=O)N/C(=C/c1ccco1)C(=O)N1CC2CC(C1)c1cccc(=O)n1C2 (stereo not shown) [A3.030]

IC50 [2]: 27.5 µM
Compound: CC(/C=N/NC(=O)c1ccco1)=C\c1ccco1 [A4.088]

IC50 [2]: 16.7 µM
Compound: COc1ccc(/C=C(/NC(=O)c2ccccc2)C(=O)N/N=C\C=C\c2ccc(C)o2)cc1OC [A4.041]

IC50 [1]: 28 µM
Compound: O=C(Cc1cccs1)N/N=C/C=C\c1ccco1 [A3.171]
